Values after ≈ are worked out from the molar mass of the structure shown.
Assays:
Hsc70 [1] = assay: Detection of Hsc70 gene expression level upon action of compound on 2.2.15 cells (real-time fluorescent quantified PCR); type: cell-based; parameters: Hsc70 mRNA / Hsc70 down-regulation rate (%): unit not given here; conditions: 2.2.15 cells
Method in brief: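 2.2.15 cells grown 24 hr in 10% FCS medium, then exposed to compounds (20 mg/ml MEM stock diluted in medium) for 12, 24 or 36 hr; 400 μg/ml OMTR as control. Hsc70 mRNA and HBV DNA changes measured by real-time fluorescent quantitative PCR.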

Hsc70 [2] = assay: Inhibition effects of compound on Hsc70 in Huh7.5 cultured cell (qRT-PCR, Western blotting); type: cell-based; parameters: key to Hsc70 down-regulation rate (%): “—” represents no significant inhibition rate
Description: 2×10^5/ml Huh7.5 cells (purchased from Vertex Pharmaceutical Co., USA) were inoculated in an amount of 3 ml on 6-well culture plate, placed in an incubator with 37° C., 5% CO2 content, saturation humidity, and cultured for 24 h, added with different drug solutions (DM122) formulated with culture medium, and cell control was set. Cultivation was continuously performed in the incubator with 37° C., 5% CO2 content, saturation humidity for 24 h, a kit for RNA extraction was used to extract intracellular RNA from the cells, and one-step qRT-PCR was used to determine intracellular contents of Hsc70 and GAPDHRNA. After the cultivation of cells was performed for 48 h, the cells were digested and harvested, then the cells were split with CytoBuster™ Protein Extraction Buffer that contained many kinds of protease inhibitors, total intracellular proteins were extracted, and Western blotting was used to analyze the contents of Hsc70 and GAPDH proteins. In comparison with the cell control, the inhibition effects on Hsc70 upon action of different drugs were analyzed.

HCV = assay: Inhibition effects of compounds on HCV in Huh7.5 cultured cell after HCV infection; type: cell-based
Method in brief: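 Huh7.5 cells, cultured 24 h, were infected with HCV at 45 IU/cell and given drug in medium for 72 h at 37° C. Intracellular HCV and GAPDH RNA quantified by one-step qRT-PCR, with inhibition analysed against virus control; three repeats.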

2.2.15 cells = assay: Drug TC50 by MTT detection; type: cell-based; conditions: Reed-Muench
Description: 2.2.15 cells (all cells were purchased from Vertex Pharmaceutical Co., USA) in exponential growth phase were inoculated on 96-well culture plate, 2×10^5 cells/well, added with culture media containing PFA diluted in different concentration rates, 3 wells for each diluted concentration, placed in 37° C. CO2—containing incubator and cultivated for 48 h; the supernatant was discarded, 100 μl of MTT (0.5 mg/ml) in culture medium was added, cultivation was continuously performed at 37° C. for 4 h; each well was added to 100 μl of 50% DMF-20% SDS destaining solution, stood at 37° C. overnight; ELISA was used to measure optical density at wavelength of 570 nm (0D570).
In each experiment, 3 cell control wells and 3 blank controls well were set, the results were used in formula, (cell control OD570-drug-medicated cell OD570)/cell control OD570, to calculate cell death rate (%), and Reed-Muench method was used to calculate half toxic concentration TC50.

DHBV = DHBV animal test; type: in vivo, Peking ducks
Description: Infection and administration: Peking ducks (purchased from Institute of Animals, Chinese Academy of Medical Sciences) were infected via foot vein with 0.2 ml DHBV positive serum. […] The control group was administered with physiological saline (1 ml); positive control was administered with 3TC (lamivudine), in dose of 50 mg/kg (5 mg/ml, 1 ml).

Hsc70 [3] = assay: Hsc70 protein in virus particles in supernatant from HCV-infected Huh7.5 cultured cell liquid; type: cell-based; conditions: HCV-infected Huh7.5 cells, 96 h, Western blotting (FIG. 8)
Description: Huh7.5 cells were inoculated in an amount of 3×10^4/cm^2, cultured in 10 cm culture dish (58.1 cm^2/well) for 6 h, infected with HCV and simultaneously added with DM-122 drug solutions with different concentration and positive control Intron A, after action for 96 h, the supernatant from cultured cell liquid was subjected to ultra-high speed centrifugation to separate virus particles, Western blotting was used to analyze the contents of Hsc70 and GAPDH proteins in virus particles.

[4] = Acute toxicity of compound in mice; type: in vivo
Description: Kunming mice (purchased from Institute of Animal, Chinese Academy of Medical Sciences), 18-20 g, were weighed and randomly divided in groups, 10 mice per group, half male and half female, intraperitoneally injected with DM122 solution, in concentration of 0, 250 mg/kg, 500 mg/kg and 1000 mg/kg once. The death of animals was observed. On the 7th day, the animals were weighed, blood samples were taken and functional indexes (GOT, GPT, BUN and CRE) of liver and kidney in blood were determined.
Since Compound 6b had relatively high activity on anti-HBV and anti-HCV. The inventors had used it as a candidate of anti-hepatitis drug to evaluate its safety in animal body. Kunming mice were used for test of safety and acute toxicity of Compound 6b (13-methoxy matrine), via oral administration, administration doses were separately 250, 500 and 750 mg/kg once, then the mice were strictly monitored for 7 days.

wild type HBV = assay: Inhibition effects on wild type HBV (Real-time PCR of HBV DNA, Huh-7.5 cells); type: cell-based; conditions: 36 h; lamivudine 0.16n/mL, compound 6b 37 μg/mL
Description: (§1) Lamivudine-resistant strain (LRS M204V L180M) was used to transfect Huh-7.5 cells, lamivudine was used as positive control, lamivudine (0.16n/mL) and compound 6b (37 μg/mL) were separately used to treat wild type and LRS type HBV, after 36 h, Real-time PCR was used to determine HBV DNA levels, respectively, and the results were shown in FIG. 12.

[5] = tested on: Lamivudine-resistant strain (LRS M204V L180M) HBV; assay: Inhibition effects on drug resistant type HBV (Real-time PCR of HBV DNA, Huh-7.5 cells); type: cell-based; conditions: 36 h; lamivudine 0.16n/mL, compound 6b 37 μg/mL
Description: as §1

With `COc1ccc(CN2CC3CCCN4CCCC(C2CCCC(=O)O)C34)cc1` (stereo not shown) [DM-122, N-(4-methoxybenzyl) matrinic acid] the “Hsc70 inhibition rate (down-regulation of Hsc70 expression activity, expressed in relative OMT ratio)” value (Hsc70 [1]; relative to OMT (= 1)) was 1.56, the “Hsc70 down-regulation rate (%)” value (Hsc70 [2]; 200 ug/ml (upper data)) was 36.8 ± 1.4% and the “Hsc70 down-regulation rate (%)” value (Hsc70 [2]; 400 ug/ml (lower data)) was “—”. For the same molecule, the “inhibition of intracellular Hsc70 mRNA” value (Hsc70 [2]; Huh7.5 cells, 24 h, qRT-PCR (FIG. 4)) was “dose-dependent inhibition effects”, the “inhibition of intracellular Hsc70 protein” value (Hsc70 [2]; Huh7.5 cells, 48 h, Western blotting (FIG. 5)) was “dose-dependent inhibition effects” and the “HCV inhibition rate (%)” value (HCV; 200 ug/ml (upper data)) was 77.2 ± 4.8%. The “HCV inhibition rate (%)” value (HCV; 400 ug/ml (lower data)) was 88.0 ± 4.0%, the “inhibition of intracellular HCV Core and Hsc70 proteins” value (HCV; HCV-infected Huh7.5 cells, 72 h, Western blotting (FIG. 7A)) was “dose-dependent inhibition effects” and the “effect on intracellular HCV RNA” value (HCV; HCV-infected Huh7.5 cells, 72 h, qRT-PCR (FIG. 6)) was “dose-dependent effects”. For the same molecule, the “EC50 (half effective concentration)” value (HCV; virus not given, stands beside HCV inhibition rate) was 252.35 µg/mL (≈ 653 µM), the “CC50 (concentration to cause poisoning in half cells)” value (2.2.15 cells) was >1000 µg/mL and the “HBVDNA in liver, inhibition rate” value (DHBV; duckling, oral 37.5 mg/kg twice per day, 15 days (FIG. 1)) was −5.14%. The “activity against hepatitis B virus in DHBV-infected ducks (HBV DNA in liver and serum)” value (DHBV; oral 150, 75, 37.5 mg/kg twice per day, 15 days) was “good activity against hepatitis B virus”, the “Hsc70 protein content in virus particles in supernatant” value (Hsc70 [3]) was “reduced the Hsc70 protein content in virus particles” and the “influence on body weight of mice” value ([4]; mouse, in vivo) was “no influence on body weight of mice”. The “influence on liver and kidney functions (GOT, GPT, BUN, CRE)” value ([4]; mouse, in vivo, ip) was “no influence on liver and kidney functions”.

With `CCOC1CC(=O)N2CC3CCCN4CCCC(C34)C2C1` (stereo not shown) [Compound 6b, 13-ethoxy matrine] the “Hsc70 mRNA” value (Hsc70 [1]; down-regulation of liver cell Hsc70 gene) was 74.1 ± 0.11, the “anti-HCV activity (HCV nucleoprotein and Hsc70 protein levels)” value (HCV; HCV-infected Huh7.5 cells, 200 μg/mL, Western blotting (FIG. 7B)) was “significant activity on anti-HCV” and the “activity against HCV (HCV RNA level)” value (HCV; HCV-infected Huh7.5 cells, 200 μg/mL, real-time RT-PCR) was “best activity against HCV”. For the same molecule, the “oral LD50” value ([4]; mice, oral administration once) was “greater than 1000 mg/kg”, the death of mice ([4]; oral once, 250, 500 and 750 mg/kg) was “no mouse died” and the change of bodyweight ([4]; oral once, 250, 500 and 750 mg/kg (FIG. 11A)) was “no significant change of bodyweight”. The “AST, ALT, BUN and CRE indexes in blood” value ([4]; oral, 750 mg/kg dose group (FIG. 11B)) was “no significant abnormality”, the “inhibition rate on wild type HBV” value (wild type HBV) was 35% and the “inhibition rate on drug-resistant HBV” value [5] was 32%.
